Measured values from PubChem BioAssay (NCI).
Where “and” joins values, the source holds several entries; their conditions need not be identical. Equal values may be shown once.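 Following 48 hours of exposure in 96-well plates, responses at five concentrations were used to interpolate endpoints linearly. GI50 = concentration required for 50% inhibition of growth. TGI denotes the concentration required for complete inhibition of growth.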

Experiments:
Test in all cases: DTP human tumour cell line panel, 48 h
NCI-H226 lung = system: NCI-H226 lung
ACHN renal = system: ACHN renal
SK-MEL-5 melanoma = system: SK-MEL-5 melanoma
SN12C renal = system: SN12C renal
IGROV1 ovarian = system: IGROV1 ovarian
HCT-116 colon = system: HCT-116 colon
CCRF-CEM leukemia = system: CCRF-CEM leukemia
OVCAR-4 ovarian = system: OVCAR-4 ovarian
M14 melanoma = system: M14 melanoma
HOP-92 NSCLC = system: HOP-92 NSCLC

| SMILES | TGI (NCI-H226 lung) [µM] | TGI (ACHN renal) [µM] | TGI (SK-MEL-5 melanoma) | TGI (SN12C renal) [µM] | TGI (IGROV1 ovarian) | TGI (HCT-116 colon) | TGI (CCRF-CEM leukemia) | TGI (OVCAR-4 ovarian) | TGI (M14 melanoma) | TGI (HOP-92 NSCLC) [µM] | GI50 (ACHN renal) [µM] | GI50 (SK-MEL-5 melanoma) | GI50 (SN12C renal) [µM] | GI50 (IGROV1 ovarian) | GI50 (HOP-92 NSCLC) [µM] | GI50 (HCT-116 colon) | GI50 (CCRF-CEM leukemia) | GI50 (OVCAR-4 ovarian) | GI50 (M14 melanoma) | GI50 (NCI-H226 lung) [µM] |
| --- | --- | --- | --- | --- | --- | --- | --- | --- | --- | --- | --- | --- | --- | --- | --- | --- | --- | --- | --- | --- |
| CN(C)C=Nc1ccn(CCO)c(=O)n1 | > 100 | > 100 | > 100 µM | > 100 | > 100 µM | > 100 µM | > 100 µM | > 100 µM | > 100 µM | – | – | – | – | – | – | – | – | – | – | – |
| Cn1cc(C(=O)c2ccccc2)c2ccccc2c1=O | – | > 100 | > 100 µM | > 100 | > 100 µM | > 100 µM | > 100 µM | > 100 µM | > 100 µM | > 100 | – | – | – | – | – | – | – | – | – | – |
| COc1cc(Nc2nc3cc(N)cc(N)c3nc2-c2ccccc2)cc(OC)c1OC | – | 43 | 27.8 µM | 83.7 | 58.2 µM | 34.1 µM | 42 µM | 0.892 µM | 44.9 µM | 21 | 16.7 | 13 µM | 20.4 | 15.7 µM | 2.73 | 15.4 µM | 4.4 µM | 0.0313 µM | 19.6 µM | – |
| Nc1ncnc2c1ncn2[C@]1(CO)C=C(CO)C(O)C1O (some centres undefined) | > 100 | > 100 | > 100 µM | > 100 | – | > 100 µM | – | > 100 µM | > 100 µM | > 100 | – | – | – | – | – | – | – | – | – | – |
| Cn1c2c(c3ccccc31)CCN(CCCCN1CCCCC1)C2=O | – | > 100 | > 100 µM | > 100 | > 100 µM | > 100 µM | > 100 µM | > 100 µM | > 100 µM | > 100 | – | – | – | – | – | – | – | – | – | – |
| COc1cc2c(cc1OC)[C@@H](Nc1ccc(C#N)cc1)C1COC(=O)[C@@H]1C2c1cc(OC)c(O)c(OC)c1 (some centres undefined) | 0.298 | 1.01 | 14.3 µM and 2.53 µM | 2.28 | 95 µM and > 100 µM | 25.8 µM and > 100 µM | 0.0709 µM and 0.451 µM | 75.1 µM and > 100 µM | 95 µM and > 100 µM | – | – | 0.499 µM and 0.292 µM | – | 7.06 µM and 5.07 µM | – | 6.81 µM and 3.23 µM | 0.0111 µM and 0.0152 µM | 19.1 µM and 26.8 µM | 0.515 µM and 0.342 µM | – |
| c1cc(NNc2cccc(-c3nn[nH]n3)c2)cc(-c2nn[nH]n2)c1 | > 100 | > 100 | > 100 µM | > 100 | > 100 µM | > 100 µM | – | > 100 µM | > 100 µM | > 100 | – | – | – | – | – | – | – | – | – | – |
| Cc1cc(O)c(=O)cc2c1C[C@H]1CC(C)(C)/C=C/C[C@]3(C)Oc4cc(=O)c(O)cc(C)c4C[C@H]3C[C@H](O)[C@@]1(C)O2 | 13.6 | 14.5 | 0.0985 µM | > 29.2 | 7.46 µM | > 100 µM | 1.21 µM | > 100 µM | 19.7 µM | – | < 0.01 | 0.0166 µM | < 0.0133 | 0.025 µM | – | < 0.01 µM | 0.0163 µM | 0.0172 µM | 0.0266 µM | 0.0541 |
| Cc1cc(S(=O)(=O)Nc2nc3ccccc3o2)c(SCc2ccccc2)cc1Cl | 72.9 | 38.4 | 33.4 µM | 90.1 | > 100 µM | 33.4 µM | – | 67.9 µM | 38 µM | 20.9 | 17.9 | 16.7 µM | 32.1 | 48.9 µM | 4.65 | 13.8 µM | – | 25.4 µM | 17.5 µM | 26.4 |
| c1ccc([P+](CCSCCSCC[P+](c2ccccc2)(c2ccccc2)c2ccccc2)(c2ccccc2)c2ccccc2)cc1 | > 100 | > 100 | > 100 µM | > 100 | > 100 µM | > 100 µM | – | > 100 µM | > 100 µM | > 100 | – | – | – | – | – | – | – | – | – | – |
| CN1C(=O)CCC1(O)C1C=CC=CC1 (centres undefined) | > 100 | > 100 | > 100 µM | > 100 | > 100 µM | > 100 µM | > 100 µM | > 100 µM | > 100 µM | – | – | – | – | – | – | – | – | – | – | – |
| CCOC(=O)/C(=C/N1CCN(C(=O)c2ccco2)C1=S)C(=O)c1ccccc1 | – | 17.6 | < 0.005 µM | 17.4 | > 50 µM | 23.7 µM | > 50 µM | > 50 µM | 21 µM | > 50 | 8.48 | < 0.005 µM | 8.1 | > 50 µM | 23 | 8.93 µM | 15.6 µM | 31 µM | 8.86 µM | – |
| COc1ccc(C/C(=N/O)C(=O)NCCc2cc(Br)c(OCCCN(C)C)c(Br)c2)cc1Br | – | 30 | – | 33.8 | – | 28 µM | – | 38.8 µM | 31.6 µM | – | – | – | – | – | – | – | – | – | – | – |
| Cc1cc(NCCCCCCCCNc2cc(C)nc3cc(N)ccc23)c2ccc(N)cc2n1 | 93.3 | > 100 | 34.8 µM | > 100 | – | – | 30.8 µM | > 100 µM | 35.6 µM | – | – | – | – | – | – | – | – | – | – | – |
| COC(=O)CC(NC(=O)OCc1ccccc1)C(C(C)=O)C(=O)OCc1ccccc1 (centres undefined) | – | > 31.6 | > 31.6 µM | > 31.6 | > 31.6 µM | > 31.6 µM | > 31.6 µM | – | > 31.6 µM | > 31.6 | – | – | – | – | – | – | – | – | – | – |
| O=C1CSCc2sccc21 | > 100 | > 100 | > 100 µM | > 100 | > 100 µM | > 100 µM | > 100 µM | > 100 µM | > 100 µM | – | – | – | – | – | – | – | – | – | – | – |
| Cc1cn(C2CC(O)C(COC(=O)c3ccccc3)O2)c(=O)[nH]c1=O (centres undefined) | – | > 100 | > 100 µM | > 100 | > 100 µM | > 100 µM | > 100 µM | > 100 µM | > 100 µM | > 100 | – | – | – | – | – | – | – | – | – | – |
| O=C1C2Nc3ccccc3SC2C(=O)N1c1ccc(Br)cc1 (centres undefined) | 92.4 | > 100 | 55.3 µM | > 100 | > 100 µM | – | – | 74.2 µM | > 100 µM | 33.2 | – | – | – | – | – | – | – | – | – | – |
| CC(=O)OCC1OC(n2cc(F)c(=O)[nH]c2=O)C(NC(=O)N(CCCl)N=O)C(OC(C)=O)C1OC(C)=O (centres undefined) | – | > 100 | > 100 µM | > 100 | > 100 µM | > 100 µM | > 100 µM | > 100 µM | > 100 µM | > 100 | – | – | – | – | – | – | – | – | – | – |
| COC(=O)CCC(NC(=S)N/N=C(\C)c1cnc2ccccc2n1)C(=O)OC (centres undefined) | > 100 | 89.2 | 80.7 µM | > 100 | > 100 µM | 38.6 µM | 15.7 µM | > 100 µM | > 100 µM | – | – | – | – | – | – | – | – | – | – | – |
| O=S(=O)(NCCCNc1nccc(-c2c(-c3ccc(O)cc3)nc3sccn23)n1)c1ccc(F)cc1 | 10.1 | > 100 | 2.67 µM | > 100 | 8.78 µM | 4.77 µM | – | 9.92 µM | 2.8 µM | 8.56 | 2.09 | 1.21 µM | 1.84 | 2.85 µM | 2.65 | 1.25 µM | – | 3.36 µM | 0.064 µM | 2.15 |
| Cc1nc(-n2nc(-c3ccccc3)cc2-c2ccccc2)sc1C(=O)/C=C/c1ccc(/C=C/C(=O)c2sc(-n3nc(-c4ccccc4)cc3-c3ccccc3)nc2C)cc1 | 71.2 | 40.2 | – | 43.5 | 28.6 µM | 37.4 µM | 96.7 µM | > 100 µM | 36.7 µM | – | – | – | – | – | – | – | – | – | – | – |
| COc1ccc(NC(=O)C(=O)c2c(O)c3ccc(O)cc3oc2=O)c([N+](=O)[O-])c1 | > 100 | > 100 | > 100 µM | – | > 100 µM | > 100 µM | > 100 µM | > 100 µM | > 100 µM | > 100 | – | – | – | – | – | – | – | – | – | – |
| Cc1nc2ccc(Nc3nc(Cl)nc(N4CCOCC4)n3)cc2n1Cc1ccccc1 | 48.9 | 28.7 | – | 88 | 6.41 µM | 89 µM | > 100 µM | – | – | 6.36 | 9.35 | – | 6.79 | 2.58 µM | 2.07 | 5.16 µM | 2.93 µM | – | – | 7.88 |
| Cc1c(Cl)cccc1NC(=O)C(=O)C(C(=O)c1ccccc1-c1ccccc1)C1OC(=O)c2ccccc21 (centres undefined) | 18.1 | – | 29.9 µM | – | > 100 µM | 25 µM | 96.9 µM | – | 36.3 µM | 34.4 | – | – | – | – | – | – | – | – | – | – |
| CCN(CCCN(C)C)Cc1cc(I)cc(C)c1O | > 100 | 58.6 | 31.5 µM | > 100 | 45.4 µM | 32 µM | – | > 100 µM | 31 µM | 52.3 | 24.9 | 17.6 µM | 59.9 | 19.8 µM | 10.8 | 14.6 µM | – | 48.7 µM | 16.6 µM | 38.8 |
| N.N.N.N.N.[Co+3].[I-].[N-]=[N+]=[N-] | – | > 100 | > 100 µM | > 100 | > 100 µM | > 100 µM | > 100 µM | > 100 µM | > 100 µM | > 100 | > 100 | > 100 µM | > 100 | > 100 µM | > 100 | > 100 µM | > 100 µM | > 100 µM | > 100 µM | – |
| CCCCCN(CCCCC)C(=O)[C@@H](CCC(=O)O)NC(=O)c1cc2ccccc2[nH]1 | > 100 | > 100 | – | > 100 | > 100 µM | 34.2 µM | 61 µM | > 100 µM | 53.4 µM | 67.8 | – | – | – | – | – | – | – | – | – | – |
